This is an account of results in patent US7728028B2, “Substituted imidazoline compounds” (Gruenenthal GmbH, priority 2005, dated 2010).

The first assay deals with T1, human μ-opiate receptor (Homo sapiens, UniProt P35372).
T1 construct: purchased PerkinElmer Life Sciences, Zaventem, Belgium RB-HOM; host or cells: CHO-K1 cells (recombinant expression; membrane preparation)
T1 sequence (P35372 whole entry): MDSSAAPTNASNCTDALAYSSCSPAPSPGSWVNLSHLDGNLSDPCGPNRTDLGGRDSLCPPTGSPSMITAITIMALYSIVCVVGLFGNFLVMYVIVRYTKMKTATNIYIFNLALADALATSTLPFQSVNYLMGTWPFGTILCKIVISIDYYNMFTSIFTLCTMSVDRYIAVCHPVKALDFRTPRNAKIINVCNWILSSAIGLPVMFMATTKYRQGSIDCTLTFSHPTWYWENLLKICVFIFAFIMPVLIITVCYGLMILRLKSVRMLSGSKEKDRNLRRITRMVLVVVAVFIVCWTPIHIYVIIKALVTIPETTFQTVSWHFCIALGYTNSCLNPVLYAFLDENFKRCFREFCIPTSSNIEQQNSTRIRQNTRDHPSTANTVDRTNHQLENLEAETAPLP
Put plainly: Affinity for the human μ-opiate receptor ([3H]-naloxone displacement, SPA). The conditions noted are these: Table 1, aldehydes; test substance 1 μmole/l; inhibition of specific [3H]-naloxone binding; CHO-K1 membranes; read-out: μ-Opioid receptor, % inhibition [1 μM]. Put shortly: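 CHO-K1 membranes expressing the receptor, incubated 90 min at room temperature with 1 nmol/l [3H]-naloxone and WGA-SPA beads in 50 mmol/l Tris-HCl with 0.06% BSA. Non-specific binding defined with 100 μmol/l naloxone. Value is % inhibition of specific binding at 1 μmol/l test substance.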
As usually defined, the inhibition is the change of the read-out against control, counted positive when it falls. Take `CN(C)C(c1cccs1)C1CCC(C=O)CC1` (stereo not drawn) [Example 9d, 4-(dimethylaminothiophen-2-yl-methyl)-cyclohexane carbaldehyde]: the inhibition at 1 µM worked out at 69%. Regarding `CN(C)C(c1cccc(F)c1)C1CCC(CC=O)CC1` (stereo not drawn) [Example 10b, {4-[dimethylamino-(3-fluorophenyl)-methyl]-cyclohexyl}-acetaldehyde], the inhibition at 1 µM stood at 67%.

As for `CN(C)C(c1ccc(Cl)cc1)C1CCC(CC=O)CC1` (stereo not drawn) [Example 10c, {4-[(4-Chlorophenyl)-dimethylaminomethyl]-cyclohexyl}-acetaldehyde], the inhibition at 1 µM came to 50%.

The assay is the same for the next values; noted with them: Table 2, Examples 11-161; test substance 1 μmole/l; inhibition of specific [3H]-naloxone binding; CHO-K1 membranes; read-out: μ-Opioid receptor, % inhibition [1 μM].
On to `CCCCN1C=NC(Cc2ccc(Cl)cc2)(C(=O)OC)C1C1CCC(C(c2cccc(F)c2)N(C)C)CC1` (stereo not drawn) [Example 30, 1-butyl-4-(4-chlorobenzyl)-5-{4-[dimethylamino-(3-fluorophenyl)-methyl]-cyclohexyl}-4,5-dihydro-1H-imidazole-4-carboxylic acid methyl ester], for which the inhibition at 1 µM worked out at 89%. For `CCCCN1C=NC(CCC(=O)OC)(C(=O)OC)C1CC1CCC(C(CCc2ccccc2)N(C)C)CC1` (stereo not drawn) [Example 78, 1-butyl-5-[4-(1-dimethylamino-3-phenylpropyl)-cyclohexylmethyl]-4-(2-methoxycarbonylethyl)-4,5-dihydro-1H-imidazole-4-carboxylic acid methyl ester], the inhibition at 1 µM was 67%. For the molecule `COC(=O)C1(CSCc2ccccc2)N=CN(Cc2ccccc2)C1C1CCC(C(c2ccc(Cl)cc2)N(C)C)CC1` (stereo not drawn) [Example 98, 1-benzyl-4-benzylsulfanylmethyl-5-{4-[(4-chlorophenyl)-dimethylaminomethyl]-cyclohexyl}-4,5-dihydro-1H-imidazole-4-carboxylic acid methyl ester], the inhibition at 1 µM was determined as 95%. With `CCCCN1C=NC(CCSC)(C(=O)OC)C1CC1CCC(C(CCc2ccccc2)N(C)C)CC1` (stereo not drawn) [Example 128, 1-butyl-5-[4-(1-dimethylamino-3-phenylpropyl)-cyclohexylmethyl]-4-(2-methylsulfanylethyl)-4,5-dihydro-1H-imidazole-4-carboxylic acid methyl ester], the inhibition at 1 µM was 83%. The same measure, in the same setting: as for `CCCN1C=NC(CCC)(C(=O)OC)C1CC1CCC(C(c2ccc(F)cc2)N(C)C)CC1` (stereo not drawn) [Example 118, 5-{4-[dimethylamino-(4-fluorophenyl)-methyl]-cyclohexylmethyl}-1,4-dipropyl-4,5-dihydro-1H-imidazole-4-carboxylic acid methyl ester], the figure is 87%. As for `COC(=O)C1(CSCc2ccccc2)N=CN(C2CCCCC2)C1C1CCC(C(c2cccc(F)c2)N(C)C)CC1` (stereo not drawn) [Example 116, 4-benzylsulfanylmethyl-1-cyclohexyl-5-{4-[dimethylamino-(3-fluorophenyl)-methyl]-cyclohexyl}-4,5-dihydro-1H-imidazole-4-carboxylic acid methyl ester], the inhibition at 1 µM was found to be 101%.

Regarding `COC(=O)C1(CSCc2ccccc2)N=CN(C2CCCCC2)C1CC1CCC(C(c2cccc(F)c2)N(C)C)CC1` (stereo not drawn) [Example 150, 4-benzylsulfanylmethyl-1-cyclohexyl-5-{4-[dimethylamino-(3-fluorophenyl)-methyl]-cyclohexylmethyl}-4,5-dihydro-1H-imidazole-4-carboxylic acid methyl ester], the inhibition at 1 µM came to 98%. Consider `COC(=O)CCC1(C(=O)OC)N=CN(CCc2ccccc2)C1CC1CCC(C(CCc2ccccc2)N(C)C)CC1` (stereo not drawn) [Example 84, 5-[4-(1-dimethylamino-3-phenylpropyl)-cyclohexylmethyl]-4-(2-methoxycarbonylethyl)-1-phenethyl-4,5-dihydro-1H-imidazole-4-carboxylic acid methyl ester], for which the inhibition at 1 µM came to 75%.

With `CCCCC1(C(=O)OC)N=CN(CCc2ccccc2)C1C1CCC(C(c2cccc(F)c2)N(C)C)CC1` (stereo not drawn) [Example 39, 4-butyl-5-{4-[dimethylamino-(3-fluorophenyl)-methyl]-cyclohexyl}-1-phenethyl-4,5-dihydro-1H-imidazole-4-carboxylic acid methyl ester], the inhibition at 1 µM was 88%.

As to `CCC(C)C1(C(=O)OC)N=CN(C2CCCCC2)C1CC1CCC(C(c2cccc(F)c2)N(C)C)CC1` (stereo not drawn) [Example 148, 4-sec-butyl-1-cyclohexyl-5-{4-[dimethylamino-(3-fluorophenyl)-methyl]-cyclohexylmethyl}-4,5-dihydro-1H-imidazole-4-carboxylic acid methyl ester], the inhibition at 1 µM stood at 95%. On the same count and under the same terms, the result for `CCCCN1C=NC(CC(C)C)(C(=O)OC)C1CC1CCC(C(c2ccc(Cl)cc2)N(C)C)CC1` (stereo not drawn) [Example 34, 1-butyl-5-{4-[(4-chlorophenyl)-dimethylaminomethyl]-cyclohexylmethyl}-4-isobutyl-4,5-dihydro-1H-imidazole-4-carboxylic acid methyl ester] reads 98%; that for `COC(=O)C1(C)N=CN(CCc2ccccc2)C1CC1CCC(C(CCc2ccccc2)N(C)C)CC1` (stereo not drawn) [Example 137, 5-[4-(1-dimethylamino-3-phenylpropyl)-cyclohexylmethyl]-4-methyl-1-phenethyl-4,5-dihydro-1H-imidazole-4-carboxylic acid methyl ester], 61%. Still for that read-out and setting: as for `COC(=O)C1(CCSC)N=CN(C2CCCCC2)C1CC1CCC(C(c2cccc(F)c2)N(C)C)CC1` (stereo not drawn) [Example 103, 1-cyclohexyl-5-{4-[dimethylamino-(3-fluorophenyl)-methyl]-cyclohexylmethyl}-4-(2-methylsulfanyl-ethyl)-4,5-dihydro-1H-imidazole-4-carboxylic acid methyl ester], the figure is 99%; as for `COC(=O)C1(C)N=CN(CCc2ccccc2)C1CC1CCC(C(c2ccc(F)cc2)N(C)C)CC1` (stereo not drawn) [Example 134, 5-{4-[dimethylamino-(4-fluorophenyl)-methyl]-cyclohexylmethyl}-4-methyl-1-phenethyl-4,5-dihydro-1H-imidazole-4-carboxylic acid methyl ester], 92%; as for `COC(=O)C1(CC(C)C)N=CN(CCc2ccccc2)C1C1CCC(C(c2cccc(F)c2)N(C)C)CC1` (stereo not drawn) [Example 37, 5-{4-[dimethylamino-(3-fluorophenyl)-methyl]-cyclohexyl}-4-isobutyl-1-phenethyl-4,5-dihydro-1H-imidazole-4-carboxylic acid methyl ester], 93%. As for `CCCCC1(C(=O)OC)N=CN(CCc2ccccc2)C1C1CCC(C(c2ccc(Cl)cc2)N(C)C)CC1` (stereo not drawn) [Example 42, 4-butyl-5-{4-[(4-chlorophenyl)-dimethylaminomethyl]-cyclohexyl}-1-phenethyl-4,5-dihydro-1H-imidazole-4-carboxylic acid methyl ester], the inhibition at 1 µM worked out at 94%.

Take `CCCCN1C=NC(CCSC)(C(=O)OC)C1CC1CCC(C(c2ccc(F)cc2)N(C)C)CC1` (stereo not drawn) [Example 126, 1-butyl-5-{4-[dimethylamino-(4-fluorophenyl)-methyl]-cyclohexylmethyl}-4-(2-methylsulfanyl-ethyl)-4,5-dihydro-1H-imidazole-4-carboxylic acid methyl ester]: the inhibition at 1 µM was 98%. Turning to `COC(=O)C1(C)N=CN(C2CCCCC2)C1CC1CCC(C(c2ccc(F)cc2)N(C)C)CC1` (stereo not drawn) [Example 107, 1-cyclohexyl-5-{4-[dimethylamino-(4-fluorophenyl)-methyl]-cyclohexylmethyl}-4-methyl-4,5-dihydro-1H-imidazole-4-carboxylic acid methyl ester], the inhibition at 1 µM was determined as 87%. For `CCCCN1C=NC(CSCc2ccccc2)(C(=O)OC)C1CC1CCC(C(c2cccc(F)c2)N(C)C)CC1` (stereo not drawn) [Example 75, 4-benzylsulfanylmethyl-1-butyl-5-{4-[dimethylamino-(3-fluorophenyl)-methyl]-cyclohexylmethyl}-4,5-dihydro-1H-imidazole-4-carboxylic acid methyl ester], the inhibition at 1 µM is 98%. Consider `CCCN1C=NC(CSCc2ccccc2)(C(=O)OC)C1C1CCC(C(c2ccc(Cl)cc2)N(C)C)CC1` (stereo not drawn) [Example 60, 4-benzylsulfanylmethyl-5-{4-[(4-chlorophenyl)-dimethylaminomethyl]-cyclohexyl}-1-propyl-4,5-dihydro-1H-imidazole-4-carboxylic acid methyl ester], for which the inhibition at 1 µM came out at 95%. With `CCCN1C=NC(CCSC)(C(=O)OC)C1CC1CCC(C(c2cccc(F)c2)N(C)C)CC1` (stereo not drawn) [Example 112, 5-{4-[dimethylamino-(3-fluorophenyl)-methyl]-cyclohexylmethyl}-4-(2-methylsulfanyl-ethyl)-1-propyl-4,5-dihydro-1H-imidazole-4-carboxylic acid methyl ester], the inhibition at 1 µM was 95%. With `COC(=O)C1(CCSC)N=CN(CCc2ccccc2)C1CC1CCC(C(c2ccc(F)cc2)N(C)C)CC1` (stereo not drawn) [Example 133, 5-{4-[dimethylamino-(4-fluorophenyl)-methyl]-cyclohexylmethyl}-4-(2-methylsulfanylethyl)-1-phenethyl-4,5-dihydro-1H-imidazole-4-carboxylic acid methyl ester], the inhibition at 1 µM amounted to 84%.

Turning to `CCCCN1C=NC(CCC(=O)OC)(C(=O)OC)C1CC1CCC(C(c2ccc(F)cc2)N(C)C)CC1` (stereo not drawn) [Example 76, 1-butyl-5-{4-[dimethylamino-(4-fluorophenyl)-methyl]-cyclohexylmethyl}-4-(2-methoxycarbonylethyl)-4,5-dihydro-1H-imidazole-4-carboxylic acid methyl ester], the inhibition at 1 µM stood at 93%. On to `CCCCN1C=NC(C)(C(=O)OC)C1CC1CCC(C(c2cccc(F)c2)N(C)C)CC1` (stereo not drawn) [Example 124, 1-butyl-5-{4-[dimethylamino-(3-fluorophenyl)-methyl]-cyclohexylmethyl}-4-methyl-4,5-dihydro-1H-imidazole-4-carboxylic acid methyl ester], for which the inhibition at 1 µM is 95%.
